The microsomal CLint is a measure of how fast metabolising enzymes remove a compound, apart from limits set by blood flow. A higher microsomal CLint goes with faster metabolism. As a reminder, the IC50 is the concentration at which inhibition is half-maximal. Read a low IC50 as inhibition by little substance.

Here are results for 27 molecules from patent publication US9938269B2, “Inhibitor compounds of phosphodiesterase type 10A” (ABBVIE INC., priority 2011, dated 2018).

Series [1] in a line: Determination of the microsomal half-life, human liver microsomes. The note with it: human, liver microsomes, pH 7.4. (Liver microsomes are a subcellular fraction often used to study metabolism.)
Experimental: The test substances were incubated in a concentration of 0.5 μM as follows:
0.5 μM test substance are preincubated together with liver microsomes from different species (from rat, human or other species) (0.25 mg of microsomal protein/10 in 0.05 M potassium phosphate buffer of pH 7.4 in microtiter plates at 37° C. for 5 min. The reaction is started by adding NADPH (1 mg/mL). After 0, 5, 10, 15, 20 and 30 min., 50 μl aliquots are removed, and the reaction is immediately stopped and cooled with the same volume of acetonitrile. The samples are frozen until analyzed. The remaining concentration of undegraded test substance is determined by MSMS. The half-life (T½) is determined from the gradient of the signal of test substance/unit time plot, it being possible to calculate the half-life of the test substance, assuming first order kinetics, from the decrease in the concentration of the compound with time. The microsomal clearance (mCl) is calculated from mCl=ln 2/T½/(content of microsomal protein in mg/ml)×1000 [ml/min/mg]
Series [2] is described as follows: Determination of the microsomal half-life, rat liver microsomes. The conditions noted are these: rat, liver microsomes, pH 7.4.
A further series has as its target T1, PDE10A (human) (Homo sapiens, UniProt Q9Y233).
T1 construct: purchased BPS Bioscience
The series is described as follows: Measurement of PDE activity (HTRF cAMP kit), human PDE10A. The series is classed as biochemical. The note with it: PDE enzymatic reaction, substrate 20 nM for PDE10, 60 minutes at 29 C. In outline:
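HTRF detection of cAMP left after hydrolysis, expressed as percent of uninhibited control to derive IC50. Reaction: serially diluted inhibitor mixed with recombinant enzyme, started with 20 nM cAMP, 60 min at 29 °C in Tris-HCl pH 7.5 buffer containing MgCl2 and BSA.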
In general terms: In TR-FRET formats the signal depends on donor and acceptor labels being close together.

Counter-ions that a name gives are not always drawn.

T1 sequence (Q9Y233 whole entry): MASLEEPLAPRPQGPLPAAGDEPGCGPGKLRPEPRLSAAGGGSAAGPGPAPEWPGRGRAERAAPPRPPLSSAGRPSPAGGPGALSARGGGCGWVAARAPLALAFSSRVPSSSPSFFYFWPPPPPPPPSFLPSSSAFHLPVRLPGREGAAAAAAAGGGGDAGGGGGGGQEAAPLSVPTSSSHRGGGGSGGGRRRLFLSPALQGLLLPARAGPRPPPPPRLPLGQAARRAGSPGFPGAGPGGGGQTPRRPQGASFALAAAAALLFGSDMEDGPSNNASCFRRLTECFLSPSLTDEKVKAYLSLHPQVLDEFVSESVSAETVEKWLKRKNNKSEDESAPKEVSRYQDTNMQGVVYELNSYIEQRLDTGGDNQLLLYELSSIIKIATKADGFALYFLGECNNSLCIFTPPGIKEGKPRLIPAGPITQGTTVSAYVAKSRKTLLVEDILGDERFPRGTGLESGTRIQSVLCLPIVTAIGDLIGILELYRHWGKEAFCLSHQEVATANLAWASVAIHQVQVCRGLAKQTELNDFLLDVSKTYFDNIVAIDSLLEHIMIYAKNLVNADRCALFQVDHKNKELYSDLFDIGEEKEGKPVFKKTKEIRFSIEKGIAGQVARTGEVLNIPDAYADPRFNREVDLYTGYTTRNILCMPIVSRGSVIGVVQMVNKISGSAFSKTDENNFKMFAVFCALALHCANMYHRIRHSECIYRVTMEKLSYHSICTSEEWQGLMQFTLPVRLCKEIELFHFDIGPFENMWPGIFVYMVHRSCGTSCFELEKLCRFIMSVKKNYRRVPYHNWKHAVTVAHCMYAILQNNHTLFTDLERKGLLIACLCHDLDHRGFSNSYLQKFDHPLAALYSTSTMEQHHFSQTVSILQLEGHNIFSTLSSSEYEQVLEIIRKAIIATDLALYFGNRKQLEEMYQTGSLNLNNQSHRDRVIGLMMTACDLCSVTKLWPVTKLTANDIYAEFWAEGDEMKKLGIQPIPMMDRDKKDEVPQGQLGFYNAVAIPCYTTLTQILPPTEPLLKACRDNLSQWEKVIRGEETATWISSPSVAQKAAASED

For `O=C1c2c(-c3ccoc3)ccnc2CN1CCc1nc2ccccc2s1` [compound 422, 6-[2-(1,3-Benzothiazol-2-yl)ethyl]-4-(3-furyl)-7H-pyrrolo[3,4-b]pyridin-5-one trifluoroacetate], the microsomal CLint at 0.5 μM was under 100 µL/min/mg in series [1] and 100 to 220 µL/min/mg in series [2]. The molecule further yielded a half-maximal inhibitory concentration (IC50) on PDE10A (human) of under 100 nM.

Turning to `COc1ccc(-c2cncnc2)c2c1C(=O)N(CCc1cn3ccccc3n1)C2` [compound 549, 2-(2-Imidazo[1,2-a]pyridin-2-yl-ethyl)-7-methoxy-4-pyrimidin-5-yl-2,3-dihydro-isoindol-1-one trifluoroacetate], the microsomal CLint at 0.5 μM in series [1] and in series [2] was under 100 µL/min/mg in each case. Besides, at PDE10A (human), the IC50 was under 100 nM.

As to `O=C1c2c(cccc2-c2cccnc2)CN1CCc1nc2ncccc2[nH]1` [Example 253, 2-[2-(1H-Imidazo[4,5-b]pyridin-2-yl)-ethyl]-7-pyridin-3-yl-2,3-dihydro-isoindol-1-one], the microsomal CLint at 0.5 μM in series [1] and in series [2] was under 100 µL/min/mg each time. The molecule further came in with an IC50 at PDE10A (human) of 200 to 500 nM.

As to `O=C1c2c(-c3cn[nH]c3)ccnc2CN1CCc1ccc2ccccc2n1` [Example 156, 4-(1H-Pyrazol-4-yl)-6-(2-quinolin-2-yl-ethyl)-6,7-dihydro-pyrrolo[3,4-b]pyridin-5-one], the microsomal CLint at 0.5 μM in series [1] was under 100 µL/min/mg; in series [2], 100 to 220 µL/min/mg. Also, the IC50 against PDE10A (human) was under 100 nM.

On to `Cc1cnc(CCN2Cc3nccc(N4CCOCC4)c3C2=O)cc1C` [compound 520, 6-[2-(4,5-Dimethyl-2-pyridyl)ethyl]-4-morpholino-7H-pyrrolo[3,4-b]pyridin-5-one], for which the microsomal CLint at 0.5 μM in series [1] is under 100 µL/min/mg; in series [2], 100 to 220 µL/min/mg. In addition, the IC50 at PDE10A (human) is 100 to 200 nM.

In the case of `Cn1nccc1-c1cccc2c1CN(CCc1ccc3ccccc3n1)C2=O` [Example 202, 4-(2-Methyl-2H-pyrazol-3-yl)-2-(2-quinolin-2-yl-ethyl)-2,3-dihydro-isoindol-1-one trifluoroacetate], the microsomal CLint at 0.5 μM in series [1] was 100 to 220 µL/min/mg; in series [2], over 220 µL/min/mg. For the same molecule, on PDE10A (human), the IC50 is under 100 nM.

For `O=C1c2cccc(-c3cc[nH]n3)c2CN1CCc1ccc2ccccc2n1` [Example 200, 4-(1H-Pyrazol-3-yl)-2-(2-quinolin-2-yl-ethyl)-2,3-dihydro-isoindol-1-one], the microsomal CLint at 0.5 μM was 100 to 220 µL/min/mg in series [1] and over 220 µL/min/mg in series [2]. The same molecule returned an IC50 at PDE10A (human) of under 100 nM.

With `Cn1ccc(-c2ccnc3c2C(=O)N(CCc2ccc4ccccc4n2)C3)c1` [Example 337, 4-(1-Methyl-1H-pyrrol-3-yl)-6-(2-quinolin-2-yl-ethyl)-6,7-dihydro-pyrrolo[3,4-b]pyridin-5-one], the figures for the microsomal CLint at 0.5 μM in series [1] and in series [2] were 100 to 220 µL/min/mg and over 220 µL/min/mg, respectively. Moreover, the IC50 on PDE10A (human) was in the range of 100 to 200 nM.

Take `O=C1c2c(-c3cncnc3)ccnc2CN1CCc1ccc2ccccc2n1` [Example 166, 4-Pyrimidin-5-yl-6-(2-quinolin-2-yl-ethyl)-6,7-dihydro-pyrrolo[3,4-b]pyridin-5-one]: the microsomal CLint at 0.5 μM in series [1] and in series [2] was under 100 µL/min/mg in each case. Also, at PDE10A (human), the IC50 is under 100 nM.

With `CCn1c(CCN2Cc3cccc(N4CCOCC4)c3C2=O)nc2ccccc21` [Example 278, 2-[2-(1-Ethyl-1H-benzoimidazol-2-yl)-ethyl]-7-morpholin-4-yl-2,3-dihydro-isoindol-1-one], the microsomal CLint at 0.5 μM in series [1] and in series [2] was 100 to 220 µL/min/mg in each case. The molecule further gave an IC50 against PDE10A (human) of under 100 nM.

As for `O=C1c2c(-c3ccncc3)ccnc2CN1CCc1cnc2ccccc2n1` [compound 465, 4-(4-Pyridyl)-6-(2-quinoxalin-2-ylethyl)-7H-pyrrolo[3,4-b]pyridin-5-one], the microsomal CLint at 0.5 μM in series [1] and in series [2] was under 100 µL/min/mg throughout. Further, on PDE10A (human), the IC50 was under 100 nM.

As to `Cc1ccc(-c2cccc3c2C(=O)N(CCc2ccc4ccccc4n2)C3)cn1` [Example 91, 7-(6-Methyl-pyridin-3-yl)-2-(2-quinolin-2-yl-ethyl)-2,3-dihydro-isoindol-1-one], the intrinsic clearance (microsomal CLint) at 0.5 μM in series [1] is 100 to 220 µL/min/mg; in series [2], under 100 µL/min/mg. Besides, the IC50 at PDE10A (human) was under 100 nM.

For `O=C1c2cccc(N3CCOCC3)c2CN1CCc1ccc2ccccc2n1` [Example 130, 4-Morpholin-4-yl-2-(2-quinolin-2-yl-ethyl)-2,3-dihydro-isoindol-1-one; compound with trifluoro-acetic acid], the microsomal CLint at 0.5 μM in series [1] was 100 to 220 µL/min/mg; in series [2], over 220 µL/min/mg. The concentration for half-maximal inhibition (IC50) on PDE10A (human) was under 100 nM.

Turning to `O=C1c2nccc(-c3ccncc3)c2CN1CCc1ccc2ccccc2n1` [compound 451, 4-Pyridin-4-yl-6-(2-quinolin-2-yl-ethyl)-5,6-dihydro-pyrrolo[3,4-b]pyridin-7-one], the figures for the microsomal CLint at 0.5 μM in series [1] and in series [2] were under 100 µL/min/mg and 100 to 220 µL/min/mg, respectively. The same molecule registered an IC50 on PDE10A (human) of under 100 nM.

Take `O=C1c2c(ccc(F)c2-c2ccncc2)CN1CCc1ccc2ccccc2n1` [Example 14, 6-Fluoro-7-pyridin-4-yl-2-(2-quinolin-2-yl-ethyl)-2,3-dihydro-isoindol-1-one]: the microsomal CLint at 0.5 μM in series [1] and in series [2] was 100 to 220 µL/min/mg in each case. The molecule also came in with an IC50 against PDE10A (human) of under 100 nM.

Turning to `O=C1c2cccc(N3CCOCC3)c2CN1CCc1cn2ccccc2n1` [Example 308, 2-(2-Imidazo[1,2-a]pyridin-2-yl-ethyl)-4-morpholin-4-yl-2,3-dihydro-isoindol-1-one], the microsomal CLint at 0.5 μM in series [1] and in series [2] was under 100 µL/min/mg in each case. On PDE10A (human), this molecule gave an IC50 of 100 to 200 nM.

As for `O=C1c2c(cccc2N2CCNCC2)CN1CCc1ccc2ccccc2n1` [Example 102, 7-piperazin-1-yl-2-(2-quinolin-2-yl-ethyl)-2,3-dihydro-isoindol-1-one], the microsomal CLint at 0.5 μM in series [1] is under 100 µL/min/mg; in series [2], 100 to 220 µL/min/mg. For the same molecule, on PDE10A (human), the IC50 is 200 to 500 nM.

Take `O=C1c2c(cccc2-c2ccc3[nH]c(=O)[nH]c3c2)CN1CCc1cn2ccccc2n1` [Example 245, 5-[2-(2-Imidazo[1,2-a]pyridin-2-yl-ethyl)-3-oxo-2,3-dihydro-1H-isoindol-4-yl]-1,3-dihydro-benzoimidazol-2-one]: the microsomal CLint at 0.5 μM in series [1] and in series [2] was under 100 µL/min/mg throughout. In addition, the half-maximal inhibitory concentration (IC50) against PDE10A (human) is under 100 nM.

Take `O=C1c2c(N3CCOCC3)ccnc2CN1CCc1nc2ccccc2s1` [Example 377, 6-(2-Benzothiazol-2-yl-ethyl)-4-morpholin-4-yl-6,7-dihydro-pyrrolo[3,4-b]pyridin-5-one]: the microsomal CLint at 0.5 μM in series [1] and in series [2] was under 100 µL/min/mg each time. For the same molecule, the IC50 on PDE10A (human) was under 100 nM.

`CN(C)CCOc1ccc(-c2ccncc2)c2c1CN(CCc1ccc3ccccc3n1)C2=O` [compound 529, 4-(2-Dimethylamino-ethoxy)-7-pyridin-4-yl-2-(2-quinolin-2-yl-ethyl)-2,3-dihydro-isoindol-1-one]: the intrinsic metabolic clearance (microsomal CLint) at 0.5 μM in series [1] and in series [2] was under 100 µL/min/mg in each case. Further, the 50% inhibitory concentration (IC50) against PDE10A (human) is under 100 nM.

Consider `O=C1c2c(cccc2N2CCOCC2)CN1CCc1cn2ccccc2n1` [Example 310, 2-(2-Imidazo[1,2-a]pyridin-2-yl-ethyl)-7-morpholin-4-yl-2,3-dihydro-isoindol-1-one], for which the microsomal CLint at 0.5 μM in series [1] and in series [2] was under 100 µL/min/mg each time. The IC50 on PDE10A (human) is under 100 nM.

For the molecule `Cn1nccc1-c1ccc(F)c2c1C(=O)N(CCc1cn3ccccc3n1)C2` [Example 382, 4-Fluoro-2-(2-imidazo[1,2-a]pyridin-2-yl-ethyl)-7-(2-methyl-2H-pyrazol-3-yl)-2,3-dihydro-isoindol-1-one], the microsomal CLint at 0.5 μM in series [1] and in series [2] was under 100 µL/min/mg in each case. Moreover, on PDE10A (human), the IC50 is under 100 nM.

Take `O=C1c2c(cccc2N2CCOCC2)CN1CCc1ccc2sccc2n1` [Example 556, 7-Morpholino-2-(2-(thieno[3,2-b]pyridin-5-yl)ethyl)isoindolin-1-one]: the microsomal CLint at 0.5 μM in series [1] and in series [2] was 100 to 220 µL/min/mg each time. At PDE10A (human), this molecule registered an IC50 of 100 to 200 nM.

In the case of `O=C1c2c(cccc2-c2cncnc2)CN1CCc1ccc2sccc2n1` [Example 559, 7-Pyrimidin-5-yl-2-(2-thieno[3,2-b]pyridin-5-ylethyl)isoindolin-1-one], the microsomal CLint at 0.5 μM in series [1] was over 220 µL/min/mg; in series [2] it was 100 to 220 µL/min/mg. The molecule also yielded an IC50 against PDE10A (human) of under 100 nM.

Consider `O=C1c2c(-c3cccnc3)ccc(F)c2CN1CCc1cn2ccccc2n1` [Example 378, 4-Fluoro-2-(2-imidazo[1,2-a]pyridin-2-yl-ethyl)-7-pyridin-3-yl-2,3-dihydro-isoindol-1-one], for which the microsomal CLint at 0.5 μM in series [1] is 100 to 220 µL/min/mg; in series [2], under 100 µL/min/mg. Also, the IC50 against PDE10A (human) was under 100 nM.

Consider `COc1ccc(-c2cn[nH]c2)c2c1CN(CCc1cn3ccccc3n1)C2=O` [Example 372, 2-(2-Imidazo[1,2-a]pyridin-2-yl-ethyl)-4-methoxy-7-(1H-pyrazol-4-yl)-2,3-dihydro-isoindol-1-one], for which the microsomal CLint at 0.5 μM in series [1] and in series [2] was under 100 µL/min/mg in each case. Further, on PDE10A (human), the IC50 was under 100 nM.

On to `O=C1c2c(-c3ccncc3)ccnc2CN1CCc1ccc2sccc2n1` [compound 472, 4-(4-Pyridyl)-6-(2-thieno[3,2-b]pyridin-5-ylethyl)-7H-pyrrolo[3,4-b]pyridin-5-one], for which the microsomal CLint at 0.5 μM in series [1] and in series [2] was 100 to 220 µL/min/mg each time. In addition, the 50% inhibitory concentration (IC50) against PDE10A (human) is under 100 nM.
